Results published in US6355630B1, “Estra-1,3,5(10)-triene-7α-thioethers” (priority 1997, dated 2002).
Counter-ions that a name gives are not always drawn. Like-named read-outs stand apart in the source and are kept apart here.

Assays:
rat uterus = experiment: Rat uterotrophic/antiuterotrophic test procedure; format: in vivo; settings: for Uterine wet weight: daily ip, 4-day immature rat
Experimental: Rat Uterotrophic/Antiuterotrophic Test Procedure
The estrogenic and antiestrogenic properties of the compounds were determined in a 4-day immature rat uterotrophic assay (as described previously by L. J. Black and R. L. Goode, Life Sciences, 26, 1453 (1980)). Immature Sprague-Dawley rats (female, 18 days old) were tested in groups of six. […] On day 4 the animals were sacrificed by CO2 asphyxiation and their uteri were removed and stripped of excess lipid, any fluid removed and the wet weight determined. A small section of one horn was submitted for histology and the remainder used to isolate total RNA in order to evaluate complement component 3 gene expression.
Representative compounds of this invention were evaluated in the rat uterotrophic/antiuterotrophic assay to determine their in vivo effects on the rat uterus.

human estrogen receptor = target: T1, human estrogen receptor (Homo sapiens, UniProt P03372); experiment: In vitro estrogen receptor binding test procedure ([3H]-17β-estradiol competition)
T1 construct: expressed in transfected cells; host or cells: Chinese Hamster ovary (CHO) cells; ribosome-free cytosol
T1 sequence (P03372 1-595): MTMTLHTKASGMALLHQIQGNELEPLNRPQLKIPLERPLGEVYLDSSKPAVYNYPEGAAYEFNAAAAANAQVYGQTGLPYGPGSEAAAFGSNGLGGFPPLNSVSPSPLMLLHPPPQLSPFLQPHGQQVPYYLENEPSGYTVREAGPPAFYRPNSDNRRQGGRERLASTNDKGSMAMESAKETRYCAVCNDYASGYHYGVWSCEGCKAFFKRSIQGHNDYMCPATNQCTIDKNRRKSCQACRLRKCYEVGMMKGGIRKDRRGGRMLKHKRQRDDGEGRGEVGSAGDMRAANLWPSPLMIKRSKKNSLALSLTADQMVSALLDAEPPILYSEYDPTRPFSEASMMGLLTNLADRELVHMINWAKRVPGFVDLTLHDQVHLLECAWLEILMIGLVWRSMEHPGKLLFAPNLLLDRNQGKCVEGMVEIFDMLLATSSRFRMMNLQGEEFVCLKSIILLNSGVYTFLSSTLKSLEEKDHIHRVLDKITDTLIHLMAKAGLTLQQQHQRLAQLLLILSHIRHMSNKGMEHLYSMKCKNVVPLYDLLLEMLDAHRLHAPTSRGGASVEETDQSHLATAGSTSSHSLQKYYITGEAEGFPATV
Experimental: In vitro Estrogen Receptor Binding Test Procedure
Chinese Hamster ovary (CHO) cells overexpressing the estrogen receptor were grown in […] dishes in DMEM+10% dextran coated charcoal, stripped fetal bovine serum. The plates were washed twice with PBS and once with 10 mM Tris-HCl, pH 7.4, 1 mM EDTA. Cells were harvested by scraping the surface and then the cell suspension was placed on ice. Cells were disrupted with a hand-held motorized tissue grinder using two, 10-second bursts. The crude preparation was centrifuged at 12,000 g for 20 minutes followed by a 60 minute spin at 100,000 G to produce a ribosome free cytosol. The cytosol was then frozen and stored at −80° C. Protein concentration of the cytosol was estimated using the BCA assay with reference standard protein.
Binding Test Procedure Conditions
100 uG/100 uL of the receptor preparation was aliquoted per well. […] The plate was incubated at room temperature for 2.5 h. At the end of this incubation period 150 uL of ice-cold dextran coated charcoal (5% activated charcoal coated with 0.05% 69K dextran) was added to each well and the plate was immediately centrifuged at 99 g for 5 minutes at 4° C. 200 uL of the supernatant solution was then removed for scintillation counting. Samples were counted to 2% or 10 minutes, whichever occurs first. […] Also, wells containing radioactivity but no cytosol were processed with charcoal to estimate unremovable DPM of [^3H] […] 96-well plates were used because they have proven to bind the least amount of estradiol.
Counts per minute (CPM) of radioactivity were automatically converted to disintegrated per minute (DPM) by the Beckman LS 7500 Scintillation Counter using a set of quenched standards to generate a H# for each sample. To calculate the % of estradiol binding in the presence of 100 or 500 fold competitor the following formula was applied:
((DPM sample−DPM not removed by charcoal/(DPM estradiol−DPM not removed by charcoal))×100%=% of estradiol binding
For the generation of IC50 curves, % binding is plotted vs compound. […] Values are reported as IC50 values. […] For a description of these methods, see Hulme, E. C., ed. 1992. Receptor-Ligand Interactions: A Practical Approach. IRL Press, New York.(see especially chapter 8).
Compounds were tested for their ability to displace estradiol in a human ER-receptor preparation as described above.

Ishikawa uterine cells = experiment: Ishikawa cell alkaline phosphatase test procedure; format: cell-based, human; settings: for Alkaline phosphatase activity, percent of response related to 1 nM 17β-estradiol: 48 h; for Behaviour in the uterine cell line (agonist/antagonist): in words, from Table 2
Experimental: Ishikawa Cell Alkaline Phosphatase Test Procedure
Cell Maintenance and Treatment
Ishikawa cells were maintained in DMEM/F12 (50%:50%) containing phenol red+10% fetal bovine serum and the medium was supplemented with 2 mM Glutamax, 1% Pen/Strap and 1 mM sodium pyruvate. Five days prior to the beginning of each evaluation (treatment of cells) the medium was changed to phenol red-free DMEM/F12+10% dextran coated charcoal stripped serum. On the day before treatment, cells were harvested using 0.5% trypsin/EDTA and plated at a density of 5×10^4 cells/well in 96-well tissue culture plates. […] Cells were treated for 48 h prior to assay. […] Sample population for at each dose was n=8.
Alkaline Phosphatase Test Procedure
At the end of 48 h the media was aspirated and cells were washed three times with phosphate buffered saline (PBS); 50 μL of lysis buffer (0.1 M Tris-HCl, pH 9.8, 0.2% Triton X-100) was added to each well. Plates were placed at −80° C. for a minimum of 15 minutes. Plates were thawed at 37° C. followed by the addition of 150 μL of 0.1 M Tris-HCl, pH 9.8, containing 4 mM para-nitrophenylphosphate (pNPP) to each well (final concentration, 3 mM pNPP).
Absorbance and slope calculations were made using the KineticCalc Application program (Bio-Tek Instruments, Inc., Winooski, Vt.). Results are expressed as the mean +/−S.D. of the rate of enzyme reaction (slope) averaged over the linear portion of the kinetic reaction curve (optical density readings every 5 minutes for 30 minutes absorbance reading).
The four compounds were used as reference standards:
A description of these methods is described by Holinka, C. F., Hata, H., Kuramoto, H. and Gurpide, E. (1986) Effects of steroid hormones and antisteroids on alkaline phosphatase activity in human endometrial cancer cells (Ishikawa Line). Cancer Research, 46:2771-2774, and by Littlefield, B. A., Gurpide, E., Markiewicz, L., McKinley, B. and Hochberg, R. B. (1990) A simple and sensitive microtiter plate estrogen bioassay based on stimulation alkaline phosphatase in Ishikawa cells; Estrogen action of D5 adrenal steroids. Endocrinology, 6:2757-2762.

[1] = 1 uM compound + 1 nM E2, antagonist mode

Row | SMILES | Uterine wet weight (rat uterus; 1 ug Cpd) | Uterine wet weight (rat uterus; 100 ug Cpd) | IC50 (human estrogen receptor; read-out: Receptor IC50) | Alkaline phosphatase activity, percent of response related to 1 nM 17β-estradiol (Ishikawa uterine cells; 0.01 uM compound, agonist mode) | Alkaline phosphatase activity, percent of response related to 1 nM 17β-estradiol (Ishikawa uterine cells; 0.1 uM compound, agonist mode) | Alkaline phosphatase activity, percent of response related to 1 nM 17β-estradiol (Ishikawa uterine cells; [1]) | Alkaline phosphatase activity, percent of response related to 1 nM 17β-estradiol (Ishikawa uterine cells; 1 uM compound, agonist mode) | Behaviour in the uterine cell line (agonist/antagonist) (Ishikawa uterine cells) | Uterine wet weight (rat uterus; 1 ug E2 + 100 ug Cpd) | Effect on rat uterus (agonist/antagonist) (rat uterus; in words, dosed alone or with 17β-estradiol) | IC50 (human estrogen receptor)
1 | CCCCN(C)C(=O)CCCCCCCCCCS[C@H]1[C@@H]2[C@H](CC[C@]3(C)[C@@H](O)CC[C@@H]23)c2ccc(O)cc2[C@H]1O [Example 17, (6α,7α,17β) 7-[10-(N-Butyl-N-methyl-carbamoyl)-decyl]thio-estra-1,3,5(10)-triene-3,6,17-triol] | 36.5 mg | 64.2 mg | 400 nM | 0% | 0% | 28% | 1% | pure estrogen antagonists | – | – | –
2 | CCCCN(C)C(=O)CCCCCCCCCCS[C@@H]1Cc2cc(O)ccc2[C@H]2CC[C@]3(C)[C@@H](O)CC[C@H]3[C@@H]21 [Example 18, (7α,17β) 7-[10-(N-Butyl-N-methyl-carbamoyl)-decyl]thio-estra-1,3,5(10)-triene-3,17-diol] | 31.8 mg | 41.6 mg | – | 0% | 0% | 1% | 0% | pure estrogen antagonists | 46.0 mg | very efficacious antagonist | 100 nM
3 | CC12CCC3c4ccc(O)cc4CC(Sc4ccc(-c5ccc(C=CC(=O)O)cc5)cc4)C3C1CCC2O (stereo not drawn) [Example 13, (7α,17β) 7-{4-[4′-(2-Carboxy)-ethenyl]biphenyl}thio-estra-1,3,5(10)-triene-3,17-diol sodium salt] | 48.0 mg | 55.8 mg | 400 nM | 11% | 72% | 101% | 95% | – | – | – | –
4 | C[C@]12CC[C@@H]3c4ccc(O)cc4[C@@H](O)[C@@H](Sc4ccc(O)cc4)[C@H]3[C@@H]1CC[C@@H]2O [Example 3, (6α,7α,17β) 7-(4-Hydroxyphenyl)thio-estra-1,3,5(10)-triene-3,6,17-triol] | 62.4 mg | 99.9 mg | 10 nM | 86% | 88% | 97% | 75% | – | 106.1 mg | – | –
5 | C[C@]12CC[C@@H]3c4ccc(O)cc4C(=O)[C@@H](Sc4ccc(O)cc4)[C@H]3[C@@H]1CC[C@@H]2O [Example 2, (7α,17β) 3,17-Dihydroxy-7-(4-hydroxyphenyl)thio-estra-1,3,5(10)-triene-6-one] | 39.4 mg | 83.1 mg | 2500 nM | 7% | 14% | 87% | 42% | – | – | – | –
6 | CCCCN(C)C(=O)CCCCCCCCCCS[C@@H]1C(=O)c2cc(O)ccc2[C@H]2CC[C@]3(C)[C@@H](O)CC[C@H]3[C@H]12 [Example 16, (7α,17β) 7-[10-(N-Butyl-N-methyl-carbamoyl)-decyl]thio-3,17-dihydroxy-estra-1,3,5(10)-triene-6-one] | 41.3 mg | 72.5 mg | – | 7% | 22% | 66% | 42% | – | – | – | 300 nM
7 | C[C@]12CC[C@@H]3c4ccc(O)cc4C(=O)[C@@H](Sc4ccc(Br)cc4)[C@H]3[C@@H]1CC[C@@H]2O [Example 6, (7α,17β) 7-(4-Bromophenyl)thio-3,17-dihydroxy-estra-1,3,5(10)-trien-6-one] | 29.0 mg | 97.7 mg | 1500 nM | 31% | 100% | 109% | 104% | fully efficacious agonists | – | – | –
8 | CC12CCC3c4ccc(O)cc4CC(Sc4ccc(-c5ccc(C=O)cc5)cc4)C3C1CCC2O (stereo not drawn) [Example 12, (7α,17β) 7-(4-(4′-Formylbiphenyl)]thio-estra-1,3,5(10)-triene-3,17-diol] | – | – | 300 nM | 17% | 67% | 92% | 89% | – | – | – | –
